Biological target: T1, full-length MALT1 protein (Strep-MALT1(1-824)-His) (Homo sapiens, UniProt Q9UDY8)
T1 construct: full-length MALT1 protein (Strep-MALT1(1-824)-His) purified from baculovirus-infected insect cells; Strep (N); His (C); made in house; host or cells: baculovirus-infected insect cells
T1 sequence (Q9UDY8 1-824): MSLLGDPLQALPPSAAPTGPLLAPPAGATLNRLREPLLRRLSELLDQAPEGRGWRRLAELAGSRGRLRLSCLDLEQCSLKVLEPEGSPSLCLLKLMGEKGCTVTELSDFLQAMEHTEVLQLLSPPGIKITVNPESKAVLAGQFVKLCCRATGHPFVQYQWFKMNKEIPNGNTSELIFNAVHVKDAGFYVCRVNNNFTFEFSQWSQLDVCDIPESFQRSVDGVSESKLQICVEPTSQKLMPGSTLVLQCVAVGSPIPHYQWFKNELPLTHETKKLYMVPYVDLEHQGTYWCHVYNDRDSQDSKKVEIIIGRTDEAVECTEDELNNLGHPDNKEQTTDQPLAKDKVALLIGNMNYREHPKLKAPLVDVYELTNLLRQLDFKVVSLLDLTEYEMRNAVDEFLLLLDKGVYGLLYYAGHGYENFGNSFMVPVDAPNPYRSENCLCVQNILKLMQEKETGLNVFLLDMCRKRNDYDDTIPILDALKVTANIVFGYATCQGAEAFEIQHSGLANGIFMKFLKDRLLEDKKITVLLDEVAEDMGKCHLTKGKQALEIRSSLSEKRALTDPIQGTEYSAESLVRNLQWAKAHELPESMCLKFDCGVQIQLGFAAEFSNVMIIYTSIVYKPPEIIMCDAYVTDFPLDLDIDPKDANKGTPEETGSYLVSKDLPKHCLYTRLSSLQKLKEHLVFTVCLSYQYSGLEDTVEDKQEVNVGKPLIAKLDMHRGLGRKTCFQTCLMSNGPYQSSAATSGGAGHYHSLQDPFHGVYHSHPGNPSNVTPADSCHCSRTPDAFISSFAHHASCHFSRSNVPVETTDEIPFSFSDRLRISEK
Test: MALT1 Biochemical Protease Assay
Conditions: 10 nM FL MALT1, 200 μM Ac-LRSR-AMC, 50 min pre-incubation, 4 h at RT; read-out: MALT1_Biochemical activity (Ac-LRSR-amc) IC50
Method: MALT1 protease activity was assessed in an in vitro assay using a tetrapeptide as substrate and full-length MALT1 protein (Strep-MALT1(1-824)-His) purified from baculovirus-infected insect cells. The tetrapeptide LRSR is coupled to AMC (7-amino-4-methylcoumarin) and provides a quenched, fluorescent substrate for the MALT1 protease (SM Biochemicals). Cleavage of AMC from the Arginine residue results in an increase in coumarin fluorescence measured at 460 nm (excitation 355 nm). The final assay buffer consisted of 10 nM FL MALT1 protein, 200 μM Ac-LRSR-AMC, 50 mM Tris pH 7.5, 0.6 M Citrate, 1 mM DTT, 1 mM EDTA, 0.05% BSA and 1.5% DMSO. Test compounds were spotted at 50 nL in 100% DMSO per well of a black 384-Proxiplate (Perkin Elmer). Test compound concentrations ranged from 30 μM to 0.5 nM using 11 dilution steps (1:3). Background signal was measured from control wells containing assay buffer without enzyme which functions as low control (LC). High control (HC) values were generated using the reaction with enzyme but no compound treatment. Compounds were pre-incubated with MALT1 enzyme for 50 minutes at RT. Substrate was added subsequently and fluorescence was measured in Labsystems fluoroskan at excitation 355 nm and emission 460 nm to determine time 0. The reaction was subsequently incubated for 4 h at RT and fluorescence was measured. For IC50 calculations, timepoint 0 was subtracted from the 4 h timepoint to correct for any potential autofluorescence of the compounds. The enzyme reaction was linear during the 4 h incubation period. Characterization of the substrate Ac-LRSR-AMC determined the Michaelis constant KM at 200 μM.
IC50 values were calculated using the following formula (Z prime should be >0.5): […]
A best-fit curve was fitted by a minimum sum of squares method to the plot of % Controlmin vs. compound concentration. From this an IC50 value (inhibitory concentration causing 50% inhibition) can be obtained. An estimate of the slope of the plot in terms of the Hill coefficient was also obtained.
Used in “Lexis Dose Response Curve Fitting” Version 1.0.

| SMILES | IC50 [nM] |
| --- | --- |
| COC(C)c1c(NC(=O)Nc2cnc(-n3nccn3)c(Cl)c2)cncc1OC1CC1 (racemic) [Co. 13] | 850 |
| COC(C)c1c(F)cncc1NC(=O)Nc1cnc(-n2nccn2)c(Cl)c1 (racemic) [Co. 21] | 2630 |
| COC(C)c1c(NC(=O)Nc2cnc(-n3nccn3)c(Cl)c2)cncc1C(C)C (racemic) [Co. 30] | 2140 |
| COC(C)c1c(NC(=O)Nc2cnc(-n3nccn3)c(Cl)c2)cncc1C1COC1 (racemic) [Co. 31] | 1230 |
| CNc1cncc(NC(=O)Nc2cnc(-n3nccn3)c(Cl)c2)c1C(C)OC (racemic) [Co. 33] | 1820 |
| COC(C)c1c(Br)cnc(C)c1NC(=O)Nc1cnc(-n2nccn2)c(Cl)c1 (racemic) [Co. 50] | 7410 |
| COC(C)c1c(Br)cncc1NC(=O)Nc1cnc(-n2nccn2)c(Cl)c1 (single isomer, unassigned) [Co. 19] | 2750 |
| CO[C@@H](C)c1c(NC(=O)Nc2cnc(OC(F)F)c(Cl)c2)cnc(N)c1Cl (single isomer, unassigned) [Co. 135] | 2000 |
| CO[C@@H](C)c1c(NC(=O)Nc2cnc(-n3nccn3)c(Cl)c2)cncc1OCc1ccccc1 [Co. 2] | 2400 |
| COC(C)c1c(NC(=O)Nc2cnc(-n3nccn3)c(Cl)c2)cncc1OCc1ccccc1 (centres unmarked) [Co. 3] | > 30200 |
| CO[C@@H](C)c1c(O)cncc1NC(=O)Nc1cnc(-n2nccn2)c(Cl)c1 [Co. 5] | 2630 |
| COC(C)c1c(O)cncc1NC(=O)Nc1cnc(-n2nccn2)c(Cl)c1 (centres unmarked) [Co. 6] | 24000 |
| COc1cncc(NC(=O)Nc2cnc(-n3nccn3)c(Cl)c2)c1C(C)OC (centres unmarked) [Co. 7] | 170 |
| CO[C@@H](C)c1c(NC(=O)Nc2cnc(-n3nccn3)c(Cl)c2)cncc1OC(C)C [Co. 10] | 3020 |
| COC(C)c1c(NC(=O)Nc2cnc(-n3nccn3)c(Cl)c2)cncc1OCC1CC1 (centres unmarked) [Co. 11] | 1740 |
| COC(C)c1c(NC(=O)Nc2cnc(-n3nccn3)c(Cl)c2)cncc1OC1COC1 (centres unmarked) [Co. 12] | 1700 |
| COC(C)c1c(NC(=O)Nc2cnc(-n3nccn3)c(Cl)c2)cncc1OCC(N)=O (centres unmarked) [Co. 16] | 1410 |
| COC(C)c1c(NC(=O)Nc2cnc(-n3nccn3)c(Cl)c2)cncc1NC(C)C (centres unmarked) [Co. 32] | 2820 |
| COC(C)c1c(NC(=O)Nc2cnc(-n3nccn3)c(Cl)c2)cnc(C2CC2)c1Br (centres unmarked) [Co. 47] | 8710 |
| COC(C)c1c(Br)cnc(C2CC2)c1NC(=O)Nc1cnc(-n2nccn2)c(Cl)c1 (centres unmarked) [Co. 48] | > 30200 |

— patent US12404260B2, “Pyridine rings containing derivatives as MALT1 inhibitors” (Janssen Pharmaceutica NV, priority 2019, dated 2025)
